Results published in patent US10092529B2, “Necrosis inhibitors” (National Institute of Biological Sciences, Beijing, priority 2014, dated 2018).
pEC50, pIC50: −log10 of the molar value. Where two headings read alike, the source gives them in different places.

Columns and labels:
[1] = target: hRIP1 kinase (recombinant full-length RIPK1 protein with N-terminal GST-tag) (Homo sapiens (Human), UniProt Q13546); assay: Kinase assay of RIPK1 (ADP-Glo); assay type: biochemical; conditions: for pIC50: 161 nM RIPK1, 50 uM ATP, 20 uM MBP, 90 min
Sequence of hRIP1 kinase (recombinant full-length RIPK1 protein with N-terminal GST-tag) (Q13546 whole entry): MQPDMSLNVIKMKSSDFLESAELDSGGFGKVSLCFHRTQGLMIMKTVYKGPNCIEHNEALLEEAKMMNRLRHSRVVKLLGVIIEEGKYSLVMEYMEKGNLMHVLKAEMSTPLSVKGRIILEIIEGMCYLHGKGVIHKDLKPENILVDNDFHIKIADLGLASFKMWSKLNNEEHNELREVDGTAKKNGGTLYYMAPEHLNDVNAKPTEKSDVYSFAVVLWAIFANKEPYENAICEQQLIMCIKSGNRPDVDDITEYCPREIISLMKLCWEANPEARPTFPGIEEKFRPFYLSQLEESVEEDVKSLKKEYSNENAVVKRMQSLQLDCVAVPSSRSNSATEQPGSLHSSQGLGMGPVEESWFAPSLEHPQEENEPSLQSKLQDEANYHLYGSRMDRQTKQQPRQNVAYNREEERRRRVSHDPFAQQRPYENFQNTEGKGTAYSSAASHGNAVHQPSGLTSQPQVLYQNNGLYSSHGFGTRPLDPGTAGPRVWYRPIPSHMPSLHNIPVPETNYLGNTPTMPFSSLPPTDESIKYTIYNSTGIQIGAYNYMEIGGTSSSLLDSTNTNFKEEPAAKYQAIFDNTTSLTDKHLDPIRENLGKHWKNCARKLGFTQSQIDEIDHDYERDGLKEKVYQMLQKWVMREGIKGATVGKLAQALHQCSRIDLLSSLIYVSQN
Description: Materials: Recombinant full-length RIPK1 protein with N-terminal GST-tag (Cat#R07-34G) was purchased from SignalChem. The ADP-Glo™ kinase assay kit (Cat#V9102) was from Promega. MBP (cat# M2295) protein and all the other chemicals were from Sigma. The 384-well assay plates (Cat#3674, white, opaque) were purchased from Corning.
Kinase activity assay and data analysis: The RIPK1 kinase assay was performed in white 384-well plate. The assay buffer contained 25 mM HEPES (pH7.2), 20 mM MgCl2, 12.5 mM MnCl2, 5 mM EGTA, 2 mM EDTA, 12.5 mM β-glycerol phosphate and 2 mM DTT. RIPK1 was first incubated with compounds or DMSO control for […], then ATP/MBP substrate mixture was added to initiate the reaction. The final concentration of RIPK1 was 161 nM, while the final concentration of ATP was 50 uM, and MBP 20 uM. After 90 min reaction at room temperature, the ADP-Glo reagent and detection solution were added following the technical manual of ADP-Glo™ kinase assay kit (Promega). The luminescence was measured on PerkinElmer Enspire. The data was analyzed using Graphpad Prism (GraphPad Software; www.graphpad.com). The curves were fitted using a non-linear regression model with a sigmoidal dose response.

[2] = system: HT-29 cells; assay: Necrosis assay: TNF-α/Smac mimetic/z-VAD induced necrosis, cell viability by CellTiter-Glo; assay type: cell-based; conditions: for EC50: inhibition of necrosis, ATP levels, read-out: EC50 (necrosis activity); for pEC50: necrosis induced by TNF-α/Smac mimetic/z-VAD, 24 hrs, ATP level, read-out: Cell viability assay, EC50
Description: HT-29 cells were cultured in McCoy's 5A culture medium (Invitrogen). On day one, HT-29 cells were plated in 96-well assay plates at density of 2,500-3,500 cells per well. On day two, necrosis were induced by adding 20 ng/ml TNF-α (T), 100 nM Smac mimetic (S), and […] z-VAD (Z). At the same time, […] compound from a chemical library of ˜200,000 compounds was delivered into each well. After 24 hrs treatment, cell viability was determined by measuring ATP level using the CellTiter-Glo Luminescent Cell Viability Assay kit. A CellTiter-Glo Assay (Promega) was performed according to the manufacturer's instructions Luminescence was recorded with a PerkinElmer EnSpire Multimode Plate Reader. Survived cells were normalized to those cells treated with DMSO. Nec-1 was used as a positive control for screening necrosis inhibitors. Data are represented as mean±standard deviation of duplicates.
Dose-dependent inhibition of necrosis by compound #9 and the derivative compounds in HT-29 cells were determined by measuring ATP levels as described above.

[3] = Homo sapiens, range given in uM

Compound | EC50 [2, 3] [µM] | EC50 ([2]; range given in nM) [µM] | further results
CCC(C)(C)C(=O)N1C[C@@H](O)C[C@H]1c1ccccc1 [Compound 13, 1-((2S,4S)-4-hydroxy-2-phenylpyrrolidin-1-yl)-2,2-dimethylbutan-1-one] | 1 to 10 |  | inhibition at 2 µM [1]: 69%; pEC50 ([2]; Homo sapiens): 5.58
C=CC(C)(C)C(=O)N1C(=O)C[C@H]1c1ccccc1 [Compound 38, (S)-1-(2,2-dimethylbut-3-enoyl)-4-phenylazetidin-2-one] |  | 0.001 to 1 | pIC50 [1]: 7.86; pEC50 ([2]; Homo sapiens): 8.08
CCC(C)(C)C(=O)N1CCCC1c1cc(F)cc(F)c1F (stereo not drawn) [Compound 10, 2,2-dimethyl-1-(2-(2,3,5-trifluorophenyl)pyrrolidin-1-yl)butan-1-one] |  | 0.001 to 1 | pIC50 [1]: 7.65; pEC50 ([2]; Homo sapiens): 8.01
CCC(C)(C)C(=O)N1CCC1c1ccccc1 (stereo not drawn) [Compound 2, 2,2-dimethyl-1-(2-phenylazetidin-1-yl)butan-1-one] |  | 0.001 to 1 | pIC50 [1]: 7.46; pEC50 ([2]; Homo sapiens): 7.53
CCC(C)(C)C(=O)N1C(=O)C[C@H]1c1ccccc1 [Compound 24, (S)-1-(2,2-dimethylbutanoyl)-4-phenylazetidin-2-one] |  | 0.001 to 1 | pIC50 [1]: 7.70; pEC50 ([2]; Homo sapiens): 8.15
CCC(C)(C)C(=O)N1C(=O)CC1c1cccc(N=[N+]=[N-])c1 (stereo not drawn) [Compound 25, 4-(3-azidophenyl)-1-(2,2-dimethylbutanoyl)azetidin-2-one] |  | 0.001 to 1 | pIC50 [1]: 6.82; pEC50 ([2]; Homo sapiens): 6.26
CCN1C(=O)C[C@H]1c1ccccc1 [Compound 48, (S)-1-ethyl-4-phenylazetidin-2-one] | 1 to 100 |  | 
CCN1C(=O)OC[C@H]1c1ccccc1 [Compound 51, (R)-3-ethyl-4-phenyloxazolidin-2-one] | 1 to 100 |  | 
CCC(C)(C)C(=O)N1CCC1c1ccccc1F (stereo not drawn) [Compound 67] |  |  | EC50 ([2]; range given in uM): 1 to 1000 µM
CCC(C)(C)C(=O)N1CCC=C[C@H]1c1ccccc1 [Compound 74] |  |  | EC50 ([2]; range given in uM): 1 to 1000 µM
CCC(C)(C)C(=O)N1CCC(=O)[C@H]1c1ccccc1 [Compound S3, (R)-1-(2,2-dimethylbutanoyl)-2-phenylpyrrolidin-3-one] | 1 to 10 |  | 
O=C(C=CCl)N1C(=O)C[C@H]1c1ccccc1 [Compound 40, (S)-1-(3-chloroacryloyl)-4-phenylazetidin-2-one] | 1 to 100 |  | 
CCC(C)(C)C(=O)N1COC[C@@H]1c1ccccc1 [Compound 7, (S)-2,2-dimethyl-1-(4-phenyloxazolidin-3-yl)butan-1-one] | 1 to 100 |  | 
CCC(C)(C)C(=O)N1CC[C@H]1c1ccccc1 [Compound 3, (S)-2,2-dimethyl-1-(2-phenylazetidin-1-yl)butan-1-one] |  | 0.001 to 1 | 
CCC(C)(C)C(=O)N1CC(F)(F)C1c1ccccc1 (stereo not drawn) [Compound 14, 1-(3,3-difluoro-2-phenylazetidin-1-yl)-2,2-dimethylbutan-1-one] |  | 0.001 to 1 | 
CCC(C)(C)C(=O)N1C(=O)CC1c1cccc(Br)c1 (stereo not drawn) [Compound 26, 4-(3-bromophenyl)-1-(2,2-dimethylbutanoyl)azetidin-2-one] |  | 0.001 to 1 | 

Compound | EC50 [2, 3] [µM] | EC50 ([2]; range given in nM) [µM] | further results
CCC(C)(C)C(=O)N1CC[C@@H](O)[C@H]1c1ccccc1 [Compound S2, 1-((2R,3R)-3-hydroxy-2-phenylpyrrolidin-1-yl)-2,2-dimethylbutan-1-one] | 1 to 100 |  | 
CCC(C)(C)C(=O)N1C=CC=CC1C1CCCCC1 (stereo not drawn) [Compound 56] |  |  | EC50 ([2]; range given in uM): 1 to 1000 µM
C=CC(C)(C)C(=O)N1CCC=C[C@H]1c1ccccc1 [Compound 75] |  |  | EC50 ([2]; range given in uM): 1 to 1000 µM
C#CCN1C(=O)OC[C@H]1c1ccccc1 [Compound 52, (R)-4-phenyl-3-(prop-2-yn-1-yl)oxazolidin-2-one] | 1 to 100 |  | 
CCS(=O)(=O)N1CC[C@H]1c1ccccc1 [Compound S6, (S)-1-(ethylsulfonyl)-2-phenylazetidine] | 1 to 100 |  | 
CCC(C)(C)C(=O)n1cccc1-c1ccccc1 [Compound 78, 2,2-dimethyl-1-(2-phenyl-1H-pyrrol-1-yl)butan-1-one] | 1 to 100 |  | 
CC(C)(C)C(=O)N1CC[C@H]1c1ccccc1 [Compound S12, (S)-2,2-dimethyl-1-(2-phenylazetidin-1-yl)propan-1-one] |  | 0.001 to 1 | 
CCC(C)(C)C(=O)N1NC(=O)CC1c1ccccc1 (stereo not drawn) [Compound 34, 1-(2,2-dimethylbutanoyl)-5-phenylpyrazolidin-3-one] | 1 to 100 |  | 
CCC(C)(C)C(=O)N1C(=O)N(C)C[C@H]1c1ccccc1 [Compound 31, (R)-3-(2,2-dimethylbutanoyl)-1-methyl-4-phenylimidazolidin-2-one] |  | 0.001 to 1 | pIC50 [1]: 5.97; pEC50 ([2]; Homo sapiens): 6.22
CCC(C)(C)C(=O)N1C[C@H](O)C[C@H]1c1ccccc1 [Compound 15, 1-((2S,4R)-4-hydroxy-2-phenylpyrrolidin-1-yl)-2,2-dimethylbutan-1-one] |  | 0.001 to 1 | pIC50 [1]: 6.34; pEC50 ([2]; Homo sapiens): 6.40
CCC(C)(C)C(=O)N1CCNCC1c1ccccc1 (stereo not drawn) [Compound 17, 2,2-dimethyl-1-(2-phenylpiperazin-1-yl)butan-1-one] | 1 to 100 |  | 
CCC(C)(C)C(=O)N1C(=O)CCC1c1ccccc1 (stereo not drawn) [Compound 29, 1-(2,2-dimethylbutanoyl)-5-phenylpyrrolidin-2-one] | 1 to 100 |  | 
CC(F)(F)C(C)(C)C(=O)N1CCC=C[C@H]1C1CCCCC1 [Compound S13] | 1 to 100 |  | 
C#CCN1C(=O)C[C@H]1c1ccccc1 [Compound 49, (S)-4-phenyl-1-(prop-2-ynyl)azetidin-2-one] | 1 to 100 |  | 
CCC(C)(C)C(=O)N1C[C@@H](O)[C@H]1c1ccccc1 [Compound S4, 1-((2R,3R)-3-hydroxy-2-phenylazetidin-1-yl)-2,2-dimethylbutan-1-one] | 1 to 10 |  | 
CCC(C)(C)C(=O)N1CCCC1c1ccccc1 (stereo not drawn) [Compound 4, 2,2-dimethyl-1-(2-phenylpyrrolidin-1-yl)butan-1-one] |  | 0.001 to 1 | 
